# Test system: NRF2 (NQO1 activity as marker for NRF2 activation), BEAS-2B cells
# Experiment: BEAS-2B NQO1 MTT Assay
# Type: cell-based
# Details: Homo sapiens, EC50 of NQO1 specific activity induction, 48 hours incubation, read-out: EC50
# Procedure, shortened: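 BEAS-2B cells were exposed to compound for 48 h at 37° C, 5% CO2, then lysed. NQO1 activity was measured kinetically by MTT reduction at 570 nm over 30 minutes; EC50 came from 3-parameter fit of Delta OD/min versus log concentration.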
row,SMILES,EC50 [nM]
1,"CC[C@@H]1CN(Cc2cc([C@@H](c3ccc4c(nnn4CC)c3C)C(C)(C)NC(=O)c3cncc(C(F)(F)F)c3)ccc2C)S(=O)(=O)c2ccccc2O1 [Example 155, N-((S)-1-(3-(((R)-4-Ethyl-1,1-dioxido-3,4-dihydro-2H-benzo[b][1,4,5]oxathiazepin-2-yl)methyl)-4-methylphenyl)-1-(1-ethyl-4-methyl-1H-benzo[d][1,2,3]triazol-5-yl)-2-methylpropan-2-yl)-5-(trifluoromethyl) nicotinamide]",10 to 100
2,"CC[C@@H]1CN(Cc2cc([C@@H](c3ccc4c(nnn4CC)c3C)C(C)(C)NC(=O)c3ccc(=O)[nH]c3)ccc2C)S(=O)(=O)c2ccccc2O1 [Example 156, N-((S)-1-(3-(((R)-4-Ethyl-1,1-dioxido-3,4-dihydro-2H-benzo[b][1,4,5]oxathiazepin-2-yl)methyl)-4-methylphenyl)-1-(1-ethyl-4-methyl-1H-benzo[d][1,2,3]triazol-5-yl)-2-methylpropan-2-yl)-6-oxo-1,6-dihydropyridine-3-carboxamide]",100 to 1000
3,"CC[C@@H]1CN(Cc2cc([C@@H](c3ccc4c(nnn4CC)c3C)C(C)(C)NC(=O)c3cnc(S(C)(=O)=O)nc3)ccc2C)S(=O)(=O)c2ccccc2O1 [Example 157, N—((S)-1-(3-(((R)-4-Ethyl-1,1-dioxido-3,4-dihydro-2H-benzo[b][1,4,5]oxathiazepin-2-yl)methyl)-4-methylphenyl)-1-(1-ethyl-4-methyl-1H-benzo[d][1,2,3]triazol-5-yl)-2-methylpropan-2-yl)-2-(methylsulfonyl)pyrimidine-5-carboxamide]",100 to 1000
4,"CC[C@@H]1CN(Cc2cc([C@@H](c3ccc4c(nnn4CC)c3C)C(C)(C)NC(=O)c3cnc(N4CCC4)nc3)ccc2C)S(=O)(=O)c2ccccc2O1 [Example 158, 2-(Azetidin-1-yl)-N—((S)-1-(3-(((R)-4-ethyl-1,1-dioxido-3,4-dihydro-2H-benzo[b][1,4,5]oxathiazepin-2-yl)methyl)-4-methylphenyl)-1-(1-ethyl-4-methyl-1H-benzo[d][1,2,3]triazol-5-yl)-2-methylpropan-2-yl)pyrimidine-5-carboxamide]",10 to 100
5,"CC[C@@H]1CN(Cc2cc([C@@H](c3ccc4c(nnn4CC)c3C)C(C)(C)NC(=O)c3cnc(N4CCCC4)nc3)ccc2C)S(=O)(=O)c2ccccc2O1 [Example 159, N-((S)-1-(3-(((R)-4-Ethyl-1,1-dioxido-3,4-dihydro-2H-benzo[b][1,4,5]oxathiazepin-2-yl)methyl)-4-methylphenyl)-1-(1-ethyl-4-methyl-1H-benzo[d][1,2,3]triazol-5-yl)-2-methylpropan-2-yl)-2-(pyrrolidin-1-yl)pyrimidine-5-carboxamide]",10 to 100
6,"CC[C@@H]1CN(Cc2cc([C@@H](c3ccc4c(nnn4CC)c3C)C(C)(C)NC(=O)c3cnc(OCCCOC)nc3)ccc2C)S(=O)(=O)c2ccccc2O1 [Example 160, N-((S)-1-(3-(((R)-4-Ethyl-1,1-dioxido-3,4-dihydro-2H-benzo[b][1,4,5]oxathiazepin-2-yl)methyl)-4-methylphenyl)-1-(1-ethyl-4-methyl-1H-benzo[d][1,2,3]triazol-5-yl)-2-methylpropan-2-yl)-2-(3-methoxypropoxy)pyrimidine-5-carboxamide]",1 to 10
7,"CC[C@@H]1CN(Cc2cc([C@@H](c3ccc4c(nnn4CC)c3C)C(C)(C)NC(=O)c3cnc(OCCO)nc3)ccc2C)S(=O)(=O)c2ccccc2O1 [Example 161, N-((S)-1-(3-(((R)-4-Ethyl-1,1-dioxido-3,4-dihydro-2H-benzo[b][1,4,5]oxathiazepin-2-yl)methyl)-4-methylphenyl)-1-(1-ethyl-4-methyl-1H-benzo[d][1,2,3]triazol-5-yl)-2-methylpropan-2-yl)-2-(2-hydroxyethoxy)pyrimidine-5-carboxamide]",10 to 100
8,CC[C@@H]1CN(Cc2cc([C@@H](c3ccc4c(nnn4CC)c3C)C(C)(C)NC(=O)c3cnc(N(C)C)nc3)ccc2C)S(=O)(=O)c2ccccc2O1 [Example 162],10 to 100
9,"CCOCCOc1ncc(C(=O)NC(C)(C)[C@@H](c2ccc(C)c(CN3C[C@@H](CC)Oc4ccccc4S3(=O)=O)c2)c2ccc3c(nnn3CC)c2C)cn1 [Example 163, 2-(2-Ethoxyethoxy)-N-((S)-1-(3-(((R)-4-ethyl-1,1-dioxido-3,4-dihydro-2H-benzo[b][1,4,5]oxathiazepin-2-yl)methyl)-4-methylphenyl)-1-(1-ethyl-4-methyl-1H-benzo[d][1,2,3]triazol-5-yl)-2-methylpropan-2-yl)pyrimidine-5-carboxamide]",1 to 10
10,"CC[C@@H]1CN(Cc2cc([C@@H](c3ccc4c(nnn4CC)c3C)C(C)(C)NC(=O)c3cnc(N4CCOCC4)nc3)ccc2C)S(=O)(=O)c2ccccc2O1 [Example 164, N-((S)-1-(3-(((R)-4-Ethyl-1,1-dioxido-3,4-dihydro-2H-benzo[b][1,4,5]oxathiazepin-2-yl)methyl)-4-methylphenyl)-1-(1-ethyl-4-methyl-1H-benzo[d][1,2,3]triazol-5-yl)-2-methylpropan-2-yl)-2-morpholinopyrimidine-5-carboxamide]",10 to 100
11,"CC[C@@H]1CN(Cc2cc([C@@H](c3ccc4c(nnn4CC)c3C)C(C)(C)NC(=O)c3cnc(N4CCN(C)CC4)nc3)ccc2C)S(=O)(=O)c2ccccc2O1 [Example 165, N-((S)-1-(3-(((R)-4-Ethyl-1,1-dioxido-3,4-dihydro-2H-benzo[b][1,4,5]oxathiazepin-2-yl)methyl)-4-methylphenyl)-1-(1-ethyl-4-methyl-1H-benzo[d][1,2,3]triazol-5-yl)-2-methylpropan-2-yl)-2-(4-methylpiperazin-1-yl)pyrimidine-5-carboxamide]",10 to 100
12,"CC[C@@H]1CN(Cc2cc([C@@H](c3ccc4c(nnn4CC)c3C)C(C)(C)NC(=O)c3cccnc3)ccc2C)S(=O)(=O)c2cccnc2O1 [Example 166, N—((S)-1-(3-(((R)-4-Ethyl-1,1-dioxido-3,4-dihydro-2H-pyrido[2,3-b][1,4,5]oxathiazepin-2-yl)methyl)-4-methylphenyl)-1-(1-ethyl-4-methyl-1H-benzo[d][1,2,3]triazol-5-yl)-2-methylpropan-2-yl)nicotinamide]",1 to 10
13,"CC[C@@H]1CN(Cc2cc([C@@H](c3ccc4c(nnn4CC)c3C)C(C)(C)N(C)C(=O)c3cncnc3)ccc2C)S(=O)(=O)c2ccccc2O1 [Example 167, N—((S)-1-(3-(((R)-4-Ethyl-1,1-dioxido-3,4-dihydro-2H-benzo[b][1,4,5]oxathiazepin-2-yl)methyl)-4-methylphenyl)-1-(1-ethyl-4-methyl-1H-benzo[d][1,2,3]triazol-5-yl)-2-methylpropan-2-yl)-N-methylpyrimidine-5-carboxamide]",10 to 100
14,"CC[C@@H]1CN(Cc2cc([C@H](CC(=O)N(C)c3cccnc3)c3ccc4c(nnn4CC)c3C)ccc2C)S(=O)(=O)c2cccnc2O1 [Example 169, (S)-3-(3-(((R)-4-ethyl-1,1-dioxido-3,4-dihydro-2H-pyrido[2,3-b][1,4,5]oxathiazepin-2-yl)methyl)-4-methylphenyl)-3-(1-ethyl-4-methyl-1H-benzo[d][1,2,3]triazol-5-yl)-N-methyl-N-(pyridin-3-yl)propanamide]",100 to 1000
15,"CC[C@@H]1CN(Cc2cc([C@H](CC(=O)Nc3ccccc3)c3ccc4c(nnn4CC)c3C)ccc2C)S(=O)(=O)c2cccnc2O1 [Example 170, (S)-3-(3-(((R)-4-ethyl-1,1-dioxido-3,4-dihydro-2H-pyrido[2,3-b][1,4,5]oxathiazepin-2-yl)methyl)-4-methylphenyl)-3-(1-ethyl-4-methyl-1H-benzo[d][1,2,3]triazol-5-yl)-N-phenylpropanamide]",100 to 1000
16,"CC[C@@H]1CN(Cc2cc([C@H](CC(=O)NC3CCCC3)c3ccc4c(nnn4CC)c3C)ccc2C)S(=O)(=O)c2cccnc2O1 [Example 171, (S)-N-cyclopentyl-3-(3-(((R)-4-ethyl-1,1-dioxido-3,4-dihydro-2H-pyrido[2,3-b][1,4,5]oxathiazepin-2-yl)methyl)-4-methylphenyl)-3-(1-ethyl-4-methyl-1H-benzo[d][1,2,3]triazol-5-yl)propanamide]",100 to 1000
17,"CC[C@@H]1CN(Cc2cc([C@H](CC(=O)Nc3ccc(OC)nc3)c3ccc4c(nnn4CC)c3C)ccc2C)S(=O)(=O)c2cccnc2O1 [Example 172, (S)-3-(3-(((R)-4-ethyl-1,1-dioxido-3,4-dihydro-2H-pyrido[2,3-b][1,4,5]oxathiazepin-2-yl)methyl)-4-methylphenyl)-3-(1-ethyl-4-methyl-1H-benzo[d][1,2,3]triazol-5-yl)-N-(6-methoxypyridin-3-yl)propanamide]",100 to 1000
18,"Cc1ccc([C@@H](c2ccc3c(nnn3C)c2C)C(C)(C)C(=O)Nc2cccnc2)cc1Cn1ccnc1CC1CCCCCC1 [Example 173, (S)-3-(3-((2-(cycloheptylmethyl)-1H-imidazol-1-yl)methyl)-4-methylphenyl)-3-(1,4-dimethyl-1H-benzo[d][1,2,3]triazol-5-yl)-2,2-dimethyl-N-(pyridin-3-yl)propanamide]",10 to 100
19,"CCn1nnc2c(C)c([C@@H](CC(=O)Nc3cccnc3)c3ccc(C)c(CN4C[C@@H](C)Cc5ccc(C(F)(F)F)cc5S4(=O)=O)c3)ccc21 [Example 174, (S)-3-(1-ethyl-4-methyl-1H-benzo[d][1,2,3]triazol-5-yl)-3-(4-methyl-3-(((S)-4-methyl-1,1-dioxido-8-(trifluoromethyl)-4,5-dihydrobenzo[f][1,2]thiazepin-2(3H)-yl)methyl)phenyl)-N-(pyridin-3-yl)propanamide]",10 to 100
20,"CCC1CCN(Cc2nccn2Cc2cc([C@@H](c3ccc4c(nnn4C)c3C)C(C)(C)C(=O)Nc3cccnc3)ccc2Cl)CC1 [Example 175, (S)-3-(4-chloro-3-((2-((4-ethylpiperidin-1-yl)methyl)-1H-imidazol-1-yl)methyl)phenyl)-3-(1,4-dimethyl-1H-benzo[d][1,2,3]triazol-5-yl)-2,2-dimethyl-N-(pyridin-3-yl)propanamide]",100 to 1000
21,CC[C@@H]1CN(Cc2cc([C@@H](c3ccc4c(nnn4CC)c3C)[C@@H](C)C(=O)Nc3cccnc3)ccc2C)S(=O)(=O)c2cccnc2O1 [Example 176],1 to 10

# — patent US11078216B2, “Bisaryl amides as NRF2 activators” (GLAXOSMITHKLINE INTELLECTUAL PROPERTY DEVELOPMENT LIMITED, priority 2016, dated 2021)
